Results taken from patent US20090232731A1, “Cationic Liposomal Preparations for the Treatment of Rheumatoid Arthritis” (priority 2006, published 2009).

How the values were obtained:
[1] = system: collagen induced arthritis; assay: Collagen induced arthritis in DBA/1 mice, clinical arthritis score (EndoMTX); assay type: in vivo; conditions: day 34; i.v. 3 times a week from day 15, 5.0 mg/kg methotrexate where loaded
Method: Male DBA/1 mice with an age of ten weeks at arrival were purchased from Taconic Europe and housed in isolated cages under save environmental conditions (Five mice per cage, 22° C., 30-70% humidity and 12 h light/dark cycle) with food and water ad libitum. Experimental design was reviewed and approved by local government.
Mice were assigned to the experimental groups acclimated at least 7 days before induction of collagen induced arthritis. Animals were anesthetized intraperitoneally (i.p.) with a mixture of Xylazin and Ketamin. Each animal obtained 4 ml/kg as application volume. 0.5 ml Rompun (20 mg/ml Xylazin) and 1 ml Ketamin (100 mg/ml Ketamin) were mixed (1:2) and diluted 1:4 in 4.5 ml 0.9% NaCl. 2. For the Collagen Type II-CFA emulsions, Collagen (bovine, 4 mg/ml) was mixed 1:1 with CFA by repeated passage through a flexible tube connecting two 1-ml syringes (syringe-syringe-method). This mixture was kept on ice and will be applied within 4 hours after preparation. For the immunization 100 μl Collagen/CFA-emulsion was injected subcutaneously at the base of the tail. The injection of Collagen/CFA-emulsion was done once on day 0 and once as a booster immunization on day 21. After two weeks the animals were controlled for symptoms of collagen induced arthritis (CIA) by joint scoring three times a week. […]

[2] = system: collagen induced arthritis; assay: Collagen induced arthritis in B10RIII mice, clinical arthritis score (EndoTAG-1); assay type: in vivo; conditions: endpoint day 11; i.v. every second day; paclitaxel 2.56 mg/kg, Enbrel 10 mg/kg

Compound | order of antiarthritic efficacy (mean clinical arthritis score) [1] | order of antiarthritic efficacy (mean clinical arthritis score) [2]
CN(Cc1cnc2nc(N)nc(N)c2n1)c1ccc(C(=O)N[C@@H](CCC(=O)O)C(=O)O)cc1 [MTX, N-[4-[[(2,4-diamino-6-pteridinyl)methyl]methylamino]benzoyl]-L-glutamic acid] | EndoMTX>EndoMTX placebo>MTX | 
Enbrel |  | Enbrel>EndoTAG-1>EndoTAG-1 placebo and Taxol®
